In data set [1] the test system is mice transplanted with myeloma cells ARH-77. As to the kind of experiment: Bone resorption inhibition test in multiple myeloma model animals (urinary deoxypyridinoline). Type of data set: in vivo, C.B-17/lcr-scid Jcl mice. Particulars: 0.1 mg/kg intravenous once; urine on day 4 after administration; mice with paralysis in hind limbs; vs solvent group.
Procedure: On the next day, 10^6 cells/mouse of myeloma cells ARH-77 were transplanted into the left cardiac ventricle of each animal under anesthesia with pentobarbital. […] On the day 4 after the administration, a physiological saline load (30 ml/kg po) was burdened to these mice and the urine was collected after 6 hours. Since the mice suffering from paralysis in hind limbs could hardly urinate, such an animal was subjected to abdominal section and the urine was directly collected from the bladder. Normal animals (sham-operated group), into the left cardiac ventricle of which PBS (0.1 ml/animal) was injected as a substitute for the myeloma cells, were treated in the same manner. The urinary deoxypyridinoline (Dpyr) level was measured by using a [sequence]-D kit (Amersham) and corrected with the urinary creatinine level.
Another data set concerns patients. Particulars: intravenous 90 mg/4 weeks, cited from earlier work.
For the next data set, the system named is murine model of myeloma. The conditions noted are these: cited from earlier work.
Data set [2] has as its system patients with multiple myeloma. The conditions noted are these: 30 mg/day oral; cited from earlier work.
Data set [3] concerns mice transplanted with myeloma cells ARH-77. As to the kind of experiment: Lumbar bone mineral density decrease test in multiple myeloma model animals. Type of data set: in vivo. As for the experimental part: Similar to Example 1, mice suffering from paralysis in hind limbs were selected 3 weeks after the transplantation of myeloma cells. Then an aqueous solution of the compound A monohydrate (3 mg/kg) (compound A group) and the solvent alone (solvent group) were orally administered once a day for 6 days repeatedly. On the next day of the completion of the administration, a 10% formalin solution was refluxed from the left cardiac ventricle under anesthesia with pentobarbital and the lumber vertebrae was taken out. The bone mineral density in the bone tissue was measured by the DXA method. As Example 1, the normal mice (sham-operated group) were also subjected to the measurement of the bone mineral density.
Two weeks after the transplantation of the myeloma cells, the compound A was orally administered for 14 days in doses of 0.03, 0.3 and 3 mg/kg. Then the bone mineral density was measured as in the above (1) but selecting animals suffering from paralysis in hind limbs during the administration period.

In data set [4] the test system is human myeloma cells ARH-77. Nature of the data set: Myeloma cell proliferation inhibitory test. The data set is classed as cell-based. As for the experimental part: A 5×10^4 cells/ml cell dilution of human myeloma cells […], which had been incubated in a culture flask, was prepared by using an RPMI1640 medium (containing 10% of EBS), pipetted in 1 ml portions into a 24-well plate and then incubated in a CO2 incubator at 37° C. After 6 hours, 100 μl portions of the aqueous solution of the compound A were added to give final concentrations of 0.3 to 1000 μM (three-fold serial, duplicate samples). After incubating in the CO2 incubator at 37° C. for 4 days, the viable cells were counted with the use of a Cell Counting Kit (Dojin Kagaku). By referring the value of the control prepared by adding PBS as to the cell proliferation inhibitory ratio of […], the inhibitory ratios were calculated.

Data set [5] concerns patient with multiple myeloma. Nature of the data set: Clinical test 1 (multiple myeloma and bone lesions, one patient). The data set is classed as in vivo, human. Particulars: for M protein (IgD): blood.
Data set [6] concerns patients with multiple myeloma. Particulars: for systemic bone salt mass, change ratio to the data before the administration: 5 patients.
Where [7] appears, read: 3 mg oral once a day, after 8 weeks.
Where [8] appears, read: 6 mg oral once a day, after 24 weeks.

SMILES strings stand for the structures. Read-outs that look alike come from different tables or passages of the source.

As to `NCCC(O)(P(=O)(O)O)P(=O)(O)O` [pamidronate], in data set [1], the “inhibition of the increase in urinary Dpyr level (bone resorption marker)” value (“inhibition of the increase” below) is “no significant inhibition”. The “Dpyr level relative to level before the administration” value in the data set on patients (after 4 weeks) is listed as “exceeded 80%”. For the same compound, in the data set with patients (week 2), the “Dpyr level relative to level before the administration” value is reported as “about 60%”. For the same compound, in the data set on murine model of myeloma, the “cytotoxic effect within the bone marrow” value is “evidence of a cytotoxic effect within the bone marrow” and the “effect on tumor growth / tumor burden” value is recorded as “no effect on tumor growth was demonstrated”.

For `O=P(O)(O)C(O)(Cc1cccnc1)P(=O)(O)O` [risedronate], the “inhibition of the increase” value in data set [1] was “no significant inhibition”. Besides, in the data set on murine model of myeloma, the bone destruction result was “clear reduction in bone destruction” and the “effect on tumor growth / tumor burden” value was “no effect on tumor burden”. Moreover, in data set [2], the bone mineral density entry was “elevated bone mineral density” and the bone resorption result is on record as “suppressed bone resorption”.

Regarding `O=P(O)(O)C(O)(Cc1cnc2ccccn12)P(=O)(O)O` [compound A, 1-hydroxy-2-(imidazo[1,2-a]pyridin-3-yl)ethane-1,1-bisphosphonic acid], the “inhibition of the increase” value in data set [1] is listed as “significantly inhibited”. For the same compound, in data set [3] (3 mg/kg oral once a day for 6 days, DXA method, mice with paralysis in hind limbs), the “bone mineral density of lumbar vertebrae” value came out at 24.7 ± 0.9 mg/cm^2. Moreover, in data set [3] (oral administration (6 days 3 mg/kg; 14 days 0.03, 0.3, 3 mg/kg)), the “lumbar bone mineral density compared with solvent group” value is on record as “higher bone mineral density than the solvent group”. Moreover, the “cell proliferation inhibitory ratio” value in data set [4] (100 μM, 4 days incubation, ARH-77) is 84.2%. Also, in data set [4] (0.3 to 1000 μM, 4 days), the “inhibition of ARH-77 cell proliferation” value is “dose-dependent manner”. Besides, the “Dpyr level relative to level before the administration” value in data set [5] (setting [7]) was “about 60%”. Besides, the “M protein (IgD)” value in data set [5] (3 mg oral once a day, after 2 weeks) amounted to 11.6 mg/dL; in data set [5] (3 mg oral once a day, after 4 weeks), 9.8 mg/dL; in data set [5] (setting [7]) it was 7.7 mg/dL; in data set [5] (3 mg oral once a day, after 20 weeks), 5.9 mg/dL; in data set [5] (before administration) it was 25.8 mg/dL. Moreover, the “side effects related to the compound” value in data set [6] (6 mg oral once a day for 24 weeks, 6 patients) is on record as “No side effect”. Moreover, the “systemic bone salt mass, change ratio to the data before the administration” value worked out at 0.61% in data set [6] (6 mg oral once a day, after 12 weeks) and 1.18% in data set [6] (setting [8]). In addition, the “narcotic score (analgesic type × administration frequency)” value is reported as 0.60±1.342 in data set [6] (setting [8]) and 1.67±3.615 in data set [6] (before the administration). Further, the “EORTC questionnaire on QOL” value in data set [6] (6 mg oral once a day, before vs after 24 weeks) is “improvement was observed in pain, fatigue, shortness of breath, inappetence, constipation, economic conditions”. Also, the “bone lesions in bone radiographs” value in data set [6] (6 mg oral once a day, one of the patients) is recorded as “obvious amelioration in bone lesions”.

The record behind these values is patent US6987100B2, “Pharmaceutical compositions for treating bone lesions in multiple myeloma” (Astellas Pharm Inc., priority 1998, dated 2006).
